Results published in patent US10888530B2, “Implantable drug delivery compositions and methods of use thereof” (AcuityBio Corporation, priority 2015, dated 2021).

Key:
[1] = Paclitaxel analysis in rabbit lung implant study (blood, pleural fluid, lung tissue); assay type: in vivo
Experimental: An incision at the 8th intercostal space was made into the thorax of anesthetized rabbits. The Caudal lobe was partially released from the underlying ligament. Implants were affixed as a sandwich at the apical end of a resected caudal lobe. In all cases, 2 implants top & bottom were preloaded onto a 30 mm GIA stapler. Stapling and resection were performed using a 30 mm GIA stapler. Animals were sutured, air was removed from the thorax and the wound covered. […] A general schematic of the reset procedure is provided by FIG. 13A-D. For example, the stapler jaws (with the implant) are positioned to grasp the tissue (FIG. 13A). Staples are then deployed through the implant securing it to the tissue at the same time as the internal blade bisects the stapled tissue (FIG. 13B). The now bisected implant is released from the stapler. The resected tissue is removed.

[2] = Therapeutic concentration range for paclitaxel

concentration at 14 days ([1]; blood and tissues outside the thorax, rabbit, day 14): < 0.5 ng/mL | Paclitaxel level in pleural fluid ([1]; paclitaxel coated buttress implants): 10 to 100 nM | Paclitaxel concentration in blood (below quantifiable limits) ([1]; rabbit, 2 days, 7 days and terminally at 14 days): < 500 pg/mL | IC90 [2]: ~50 nM | IC90 (therapeutic concentration range) [2]: about 42.5 ng/ml
Structure (SMILES): CC(=O)O[C@H]1C(=O)[C@@]2(C)[C@H]([C@H](OC(=O)c3ccccc3)[C@]3(O)C[C@H](OC(=O)[C@H](O)[C@@H](NC(=O)c4ccccc4)c4ccccc4)C(C)=C1C3(C)C)[C@]1(OC(C)=O)CO[C@@H]1C[C@@H]2O [paclitaxel]
